What is called Ki is the dissociation constant of the complex between target and ligand, obtained from inhibition or displacement. A low value points to tighter binding.

Structures are written as SMILES.

T1 sequence (P49841 whole entry, the tested form may be a part): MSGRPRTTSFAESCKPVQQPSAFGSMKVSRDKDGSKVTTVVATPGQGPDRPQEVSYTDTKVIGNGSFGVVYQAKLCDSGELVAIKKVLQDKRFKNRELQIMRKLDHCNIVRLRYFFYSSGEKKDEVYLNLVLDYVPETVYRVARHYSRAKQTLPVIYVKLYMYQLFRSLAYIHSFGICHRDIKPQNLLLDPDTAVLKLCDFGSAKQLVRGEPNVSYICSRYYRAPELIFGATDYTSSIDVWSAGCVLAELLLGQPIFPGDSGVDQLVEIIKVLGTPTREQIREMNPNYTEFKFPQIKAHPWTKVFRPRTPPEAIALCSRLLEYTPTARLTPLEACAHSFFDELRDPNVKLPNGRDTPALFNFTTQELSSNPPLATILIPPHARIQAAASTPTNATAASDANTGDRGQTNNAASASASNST

This experiment has as its target T1, GSK-3β (AA 1-420) (Homo sapiens, UniProt P49841).
T1 construct: GSK-3β (AA 1-420)
Put plainly: Ki determination for the inhibition of GSK-3 (coupled enzyme system). Type of experiment: biochemical. The conditions noted are these: 20 μM ATP, 300 μM peptide, 20 nM GSK-3β, 30° C. As for the experimental part:
Compounds were screened for their ability to inhibit GSK-3β (AA 1-420) activity using a standard coupled enzyme system (Fox et al. (1998) Protein Sci. 7, 2249). Reactions were carried out in a solution containing 100 mM HEPES (pH 7.5), 10 mM MgCl2, 25 mM NaCl, 300 μM NADH, 1 mM DTT and 1.5% DMSO. Final substrate concentrations in the assay were 20 μM ATP (Sigma Chemicals, St Louis, Mo.) and 300 μM peptide (HSSPHQS(PO3H2)EDEEE, American Peptide, Sunnyvale, Calif.). Reactions were carried out at 30° C. and 20 nM GSK-3β. Final concentrations of the components of the coupled enzyme system were 2.5 mM phosphoenolpyruvate, 300 μM NADH, 30 μg/ml pyruvate kinase and 10 μg/ml lactate dehydrogenase.
An assay stock buffer solution was prepared containing all of the reagents listed above with the exception of ATP and the test compound of interest. The assay stock buffer solution (175 μl) was incubated in a 96 well plate with 5 μl of the test compound of interest at final concentrations spanning 0.002 μM to 30 μM at 30° C. for 10 min. Typically, a 12 point titration was conducted by preparing serial dilutions (from 10 mM compound stocks) with DMSO of the test compounds in daughter plates. The reaction was initiated by the addition of 20 μl of ATP (final concentration 20 μM). Rates of reaction were obtained using a Molecular Devices Spectramax plate reader (Sunnyvale, Calif.) over 10 min at 30° C. The Ki values were determined from the rate data as a function of inhibitor concentration.
For `CC(C)(C)c1cc(Nc2nc(-c3ccccc3C(F)(F)F)nc3ccccc23)n[nH]1` [II-49, (5-tert-Butyl-2H-pyrazol-3-yl)-[2-(2-trifluoromethyl-phenyl)-quinazolin-4-yl]-amine], the Ki fell in the range of 100 to 1000 nM. In turn, `FC(F)(F)c1ccccc1-c1nc(Nc2cc(-c3ccccc3)[nH]n2)c2ccccc2n1` [II-50, (5-Phenyl-2H-pyrazol-3-yl)-[2-(2-trifluoromethylphenyl)-quinazolin-4-yl]-amine] showed a Ki of 100 to 1000 nM.

Regarding `FC(F)(F)c1ccccc1-c1nc(Nc2n[nH]c(-c3ccccc3)c2-c2ccccc2)c2ccccc2n1` [II-51, (4,5-Diphenyl-2H-pyrazol-3-yl)-[2-(2-trifluoromethylphenyl)-quinazolin-4-yl]-amine], the Ki is 1000 to 20000 nM. For `NC(=O)c1c[nH]nc1Nc1nc(-c2ccccc2C(F)(F)F)nc2ccccc12` [II-52, (4-Carbamoyl-2H-pyrazol-3-yl)-[2-(2-trifluoromethylphenyl)-quinazolin-4-yl]-amine] the value was 1000 to 20000 nM. The result for `COCc1cc(Nc2nc(-c3ccccc3C(F)(F)F)nc3ccccc23)n[nH]1` [II-56, (5-Methoxymethyl-2H-pyrazol-3-yl)-[2-(2-trifluoromethyl-phenyl)-quinazolin-4-yl]-amine] reads < 100 nM. In the case of `Fc1cccc2c(Nc3nc(-c4ccccc4C(F)(F)F)nc4ccccc34)n[nH]c12` [II-60, (7-Fluoro-1H-indazol-3-yl)-[2-(2-trifluoromethyl-phenyl)-quinazolin-4-yl]-amine], the Ki was < 100 nM.

With `Fc1ccc2[nH]nc(Nc3nc(-c4c(Cl)cccc4Cl)nc4ccccc34)c2c1` [II-62, [2-(2,6-Dichloro-phenyl)-quinazolin-4-yl]-(5-fluoro-1H-indazol-3-yl)-amine], the Ki is < 100 nM. The result for `FC(F)(F)c1ccccc1-c1nc(Nc2n[nH]c3cccc(C(F)(F)F)c23)c2ccccc2n1` [II-65, (4-Trifluoromethyl-1H-indazol-3-yl)-[2-(2-trifluoromethyl-phenyl)-guinazolin-4-yl]-amine] reads 1000 to 20000 nM; that for `Clc1cccc(Cl)c1-c1nc(Nc2n[nH]c3ccccc23)c2ccccc2n1` [II-66, [2-(2,6-Dichloro-phenyl)-guinazolin-4-yl]-(1H-indazol-3-yl)-amine], < 100 nM. Consider `FC(F)(F)c1ccccc1-c1nc(Nc2n[nH]c3c(C(F)(F)F)cccc23)c2ccccc2n1` [II-68, (7-Trifluoromethyl-1H-indazol-3-yl)-[2-(2-trifluoromethyl-phenyl)-quinazolin-4-yl]-amine], for which the Ki is 1000 to 20000 nM. For `Fc1cc(F)c2[nH]nc(Nc3nc(-c4ccccc4C(F)(F)F)nc4ccccc34)c2c1` [II-71, (5,7-Difluoro-1H-indazol-3-yl)-[2-(2-trifluoromethyl-phenyl)-quinazolin-4-yl]-amine] the value was < 100 nM; for `FC(F)(F)c1ccccc1-c1nc(Nc2n[nH]c3cccc(-n4cccc4)c23)c2ccccc2n1` [II-72, (4-Pyrrol-1-yl-1H-indazol-3-yl)-[2-(2-trifluoromethyl-phenyl)-quinazolin-4-yl]-amine], 1000 to 20000 nM; for `Fc1cccc2c(Nc3nc(-c4ccccc4Cl)nc4ccccc34)n[nH]c12` [II-74, [2-(2-Chloro-phenyl)-quinazolin-4-yl]-(7-fluoro-1H-indazol-3-yl)-amine], < 100 nM. As for `Fc1c(C(F)(F)F)ccc2c(Nc3nc(-c4ccccc4C(F)(F)F)nc4ccccc34)n[nH]c12` [II-81, (7-Fluoro-6-trifluoromethyl-1H-indazol-3-yl)-[2-(2-trifluoromethyl-phenyl)-quinazolin-4-yl]-amine], the Ki is < 100 nM. For `Fc1cc(F)c2[nH]nc(Nc3nc(-c4ccc(C(F)(F)F)cc4C(F)(F)F)nc4ccccc34)c2c1` [II-83, [2-(2,4-Bis-trifluoromethyl-phenyl)-quinazolin-4-yl]-(5,7-difluoro-1H-indazol-3-yl)-amine] the value was < 100 nM; for `Fc1ccc(-c2nc(Nc3n[nH]c4c(F)cc(F)cc34)c3ccccc3n2)c(C(F)(F)F)c1` [II-84, (5,7-Difluoro-1H-indazol-3-yl)-[2-(4-fluoro-2-trifluoromethyl-phenyl)-quinazolin-4-yl]-amine], < 100 nM; for `Fc1cc(F)c2[nH]nc(Nc3nc(-c4ccccc4Br)nc4ccccc34)c2c1` [II-85, [2-(2-Bromo-phenyl)-quinazolin-4-yl]-(5,7-difluoro-1H-indazol-3-yl)-amine], < 100 nM. For `Fc1cc(F)c2[nH]nc(Nc3nc(-c4ccc(Cl)cc4Cl)nc4ccccc34)c2c1` [II-87, [2-(2,4-Dichloro-phenyl)-quinazolin-4-yl]-(5,7-Difluoro-1H-indazol-3-yl)-amine] the value was < 100 nM; for `Fc1cc(F)c2[nH]nc(Nc3nc(-c4cc(C(F)(F)F)ccc4Cl)nc4ccccc34)c2c1` [II-88, [2-(2-Chloro-5-trifluoromethyl-phenyl)-quinazolin-4-yl]-(5,7-Difluoro-1H-indazol-3-yl)-amine], < 100 nM. In the case of `Fc1cccc2[nH]nc(Nc3nc(-c4ccccc4C(F)(F)F)nc4ccccc34)c12` [II-89, (4-Fluoro-1H-indazol-3-yl)-[2-(2-trifluoromethyl-phenyl)-quinazolin-4-yl]-amine], the Ki lay in the range of 1000 to 20000 nM. For `COc1cccc2c(Nc3n[nH]c4c(F)cccc34)nc(-c3ccccc3C(F)(F)F)nc12` [II-92, (7-Fluoro-1H-indazol-3-yl)-[8-methoxy-2-(2-trifluoromethyl-phenyl)-quinazolin-4-yl]-amine] the value was < 100 nM; for `O=[N+]([O-])c1ccc(-c2nc(Nc3n[nH]c4c(F)cc(F)cc34)c3ccccc3n2)c(Cl)c1` [II-95, [2-(2-Chloro-4-nitro-phenyl)-quinazolin-4-yl]-(5,7-difluoro-1H-indazol-3-yl)-amine], < 100 nM; for `FC(F)(F)c1ccccc1-c1nc(Nc2n[nH]c3c2CCCC3)c2ccccc2n1` [II-97, (4,5,6,7-Tetrahydro-1H-indazol-3-yl)-[2-(2-trifluoromethyl-phenyl)-quinazolin-4-yl]-amine], 100 to 1000 nM. As to `FC(F)(F)c1ccccc1-c1nc(Nc2n[nH]c3cccnc23)c2ccccc2n1` [II-98, (1H-Pyrazolo[4,3-b]pyridin-3-yl)-[2-(2-trifluoromethyl-phenyl)-quinazolin-4-yl]-amine], the Ki fell in the range of 1000 to 20000 nM.

For `Cc1cc(C)c2c(Nc3nc(-c4ccccc4C(F)(F)F)nc4ccccc34)n[nH]c2n1` [II-100], the Ki is 1000 to 20000 nM. For `O=c1cc2[nH]nc(Nc3nc(-c4ccccc4C(F)(F)F)nc4ccccc34)c2nn1-c1ccccc1` [II-101, (6-Oxo-5-phenyl-5,6-dihydro-1H-pyrazolo[4,3-c]pyridazin-3-yl)-[2-(2-trifluoromethyl-phenyl)-quinazolin-4-yl]-amine] the value was 100 to 1000 nM; for `FC(F)(F)c1ccccc1-c1nc(Nc2n[nH]c3ccccc23)c2cccnc2n1` [II-108, (1H-Indazol-3-yl)-[2-(2-trifluoromethyl-phenyl)-pyrido[2,3-d]pyrimidin-4-yl]-amine], < 100 nM; for `Fc1cc(F)c2[nH]nc(Nc3nc(-c4ccccc4C(F)(F)F)nc4ncccc34)c2c1` [II-109, (5,7-Difluoro-1H-indazol-3-yl)-[2-(2-trifluoromethyl-phenyl)-pyrido[2,3-d]pyrimidin-4-yl]-amine], < 100 nM. For `Clc1ccccc1-c1nc(Nc2n[nH]c3ccccc23)c2cccnc2n1` [II-110, [2-(2-Chloro-phenyl)-pyrido[2,3-d]pyrimidin-4-yl]-(1H-indazol-3-yl)-amine] the value was < 100 nM; for `Fc1ccc2[nH]nc(Nc3nc(-c4ccccc4C(F)(F)F)nc4c3CCCCCC4)c2c1` [II-111, (5-Fluoro-1H-indazol-3-yl)-[2-(2-trifluoromethyl-phenyl)-5,6,7,8,9,10-hexahydro-cyclooctapyrimidin-4-yl]-amine], < 100 nM.

For `Fc1ccc2[nH]nc(Nc3nc(-c4ccccc4Cl)nc4c3CCC4)c2c1` [II-112, [2-(2-Chloro-phenyl)-6,7-dihydro-5H-cyclopentapyrimidin-4-yl]-(5-fluoro-1H-indazol-3-yl)-amine], the Ki was < 100 nM. The result for `FC(F)(F)c1ccccc1-c1nc2c(c(Nc3n[nH]c4ccccc34)n1)CCC2` [II-113, (1H-Indazol-3-yl)-[2-(2-trifluoromethyl-phenyl)-6,7-dihydro-5H-cyclopentapyrimidin-4-yl]-amine] reads < 100 nM; that for `Fc1cccc2c(Nc3nc(-c4ccccc4C(F)(F)F)nc4c3CCC4)n[nH]c12` [II-114, (7-Fluoro-1H-indazol-3-yl)-[2-(2-trifluoromethyl-phenyl)-6,7-dihydro-5H-cyclopentapyrimidin-4-yl]-amine], < 100 nM; that for `Fc1cc(F)c2[nH]nc(Nc3nc(-c4ccccc4C(F)(F)F)nc4c3CCC4)c2c1` [II-115, (5,7-Difluoro-1H-indazol-3-yl)-[2-(2-trifluoromethyl-phenyl)-6,7-dihydro-5H-cyclopentapyrimidin-4-yl]-amine], < 100 nM.

For the origin of these results see patent US6610677B2, “Pyrazole compounds useful as protein kinase inhibitors” (Vertex Pharmaceuticals Incorporated, priority 2000, dated 2003).
